The source of these data is ChEMBL document CHEMBL3392951, “Discovery of indole-derived pyridopyrazine-1,6-dione γ-secretase modulators that target presenilin” (Bioorg Med Chem Lett, 2015).

Molecules are shown by their SMILES.

The series in a line: Octanol-water partition coefficient, log D of the compound at pH 7.4 by shake flask method. In kind it is physicochemical.

Take `Cc1cn(-c2ccc3n(c2=O)CCN(Cc2cccc4ccccc24)C3=O)cn1`: the logD (commonly the decadic logarithm of the distribution of all forms, ionised or not, between an organic phase and buffer at a given pH) turned out to be 2.7.
On to `Cc1cn(-c2ccc3n(c2=O)CCN(Cc2cccc4ccc(C(F)(F)F)cc24)C3=O)cn1`, for which the logD stood at 3.3.
The result for `CCn1cc(CN2CCn3c(ccc(-n4cnc(C)c4)c3=O)C2=O)c2ccc(C(F)(F)F)cc21` reads 4.1.
